Assay results taken from publication PMC12264551 (Molecular Pharmacology, 2025).

Legend:
[1] = molecular target: T1, CRLR + RAMP1 (CGRP receptor) (Homo sapiens, UniProt O60894+Q16602); test: Live cell cAMP accumulation (GloSensor), COS-7 cells transfected with CRLR + RAMP1; assay type: cell-based; settings: RAMP1, COS-7
T1 construct: RAMP plasmid gift of Dr Patrick Sexton; host or cells: COS-7

[2] = molecular target: T2, CRLR + RAMP2 (adrenomedullin 1 receptor) (Homo sapiens, UniProt O60895+Q16602); test: Live cell cAMP accumulation (GloSensor), COS-7 cells transfected with CRLR + RAMP2; assay type: cell-based; settings: ATP […] + CGRP 10 nM, RAMP2, COS-7
T2 construct: RAMP plasmid gift of Dr Patrick Sexton; host or cells: COS-7
T2 sequence (Q16602 23-461): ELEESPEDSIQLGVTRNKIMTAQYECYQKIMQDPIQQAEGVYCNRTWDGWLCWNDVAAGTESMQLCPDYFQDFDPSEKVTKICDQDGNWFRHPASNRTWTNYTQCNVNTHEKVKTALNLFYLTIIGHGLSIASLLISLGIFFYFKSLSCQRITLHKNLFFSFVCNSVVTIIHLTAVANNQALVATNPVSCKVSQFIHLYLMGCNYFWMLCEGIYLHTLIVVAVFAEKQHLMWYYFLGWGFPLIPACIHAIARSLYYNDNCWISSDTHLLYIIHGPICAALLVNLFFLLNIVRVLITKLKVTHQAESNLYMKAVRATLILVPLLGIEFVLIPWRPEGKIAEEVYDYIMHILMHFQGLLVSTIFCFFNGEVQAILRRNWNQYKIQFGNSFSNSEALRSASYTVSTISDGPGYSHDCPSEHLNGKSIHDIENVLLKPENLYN
T2 sequence (O60895 43-175): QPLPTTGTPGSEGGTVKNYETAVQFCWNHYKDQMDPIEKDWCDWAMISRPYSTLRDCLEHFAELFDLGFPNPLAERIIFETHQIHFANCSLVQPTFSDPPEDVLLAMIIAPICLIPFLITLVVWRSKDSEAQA

[3] = molecular target: T3, PAC1R (Homo sapiens, UniProt P41586); test: Live cell cAMP accumulation (GloSensor), COS-7 cells transfected with PAC1R; assay type: cell-based; settings: ATP […] + PACAP 0.1 nM
T3 construct: host or cells: COS-7
T3 sequence (P41586 21-468): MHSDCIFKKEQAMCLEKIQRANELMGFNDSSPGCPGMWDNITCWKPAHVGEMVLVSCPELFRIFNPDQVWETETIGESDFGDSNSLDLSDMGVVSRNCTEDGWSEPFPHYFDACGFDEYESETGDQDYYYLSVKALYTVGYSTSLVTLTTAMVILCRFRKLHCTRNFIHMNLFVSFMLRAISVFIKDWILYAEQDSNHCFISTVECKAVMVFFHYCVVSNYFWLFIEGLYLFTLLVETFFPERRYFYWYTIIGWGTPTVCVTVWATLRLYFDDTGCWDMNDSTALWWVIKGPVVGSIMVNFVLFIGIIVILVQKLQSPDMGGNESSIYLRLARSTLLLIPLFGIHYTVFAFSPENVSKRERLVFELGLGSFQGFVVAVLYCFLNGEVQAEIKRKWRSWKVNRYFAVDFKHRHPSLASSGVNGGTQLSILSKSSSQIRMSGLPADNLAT

[4] = molecular target: T4, VPAC2R (Homo sapiens, UniProt P41587); test: Live cell cAMP accumulation (GloSensor), COS-7 cells transfected with VPAC2R; assay type: cell-based
T4 construct: host or cells: COS-7
T4 sequence (P41587 24-438): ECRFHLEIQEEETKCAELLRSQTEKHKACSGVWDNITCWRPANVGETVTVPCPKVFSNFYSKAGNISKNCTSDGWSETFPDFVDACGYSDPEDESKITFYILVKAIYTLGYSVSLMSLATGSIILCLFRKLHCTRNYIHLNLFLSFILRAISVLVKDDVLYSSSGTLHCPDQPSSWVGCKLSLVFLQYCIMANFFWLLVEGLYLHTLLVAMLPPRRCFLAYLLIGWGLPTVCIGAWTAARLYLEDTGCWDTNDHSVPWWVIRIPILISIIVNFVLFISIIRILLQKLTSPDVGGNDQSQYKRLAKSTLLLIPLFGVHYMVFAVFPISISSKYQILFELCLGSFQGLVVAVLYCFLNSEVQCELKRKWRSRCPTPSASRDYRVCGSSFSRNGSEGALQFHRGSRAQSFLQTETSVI

[5] = test system: PTH1R; settings: ref Kim et al, 2018, cited from earlier work
Text: Extracellular nucleotides are known for their ability to act as purinoceptor agonists ([Burnstock, 2007]).

[6] = molecular target: T5, VPAC1R (Homo sapiens, UniProt P32241); test: Live cell cAMP accumulation (GloSensor), COS-7 cells transfected with VPAC1R; assay type: cell-based; parameters: host or cells: COS-7; settings: ATP […] + VIP 0.1 nM
T5 sequence (P32241 31-457): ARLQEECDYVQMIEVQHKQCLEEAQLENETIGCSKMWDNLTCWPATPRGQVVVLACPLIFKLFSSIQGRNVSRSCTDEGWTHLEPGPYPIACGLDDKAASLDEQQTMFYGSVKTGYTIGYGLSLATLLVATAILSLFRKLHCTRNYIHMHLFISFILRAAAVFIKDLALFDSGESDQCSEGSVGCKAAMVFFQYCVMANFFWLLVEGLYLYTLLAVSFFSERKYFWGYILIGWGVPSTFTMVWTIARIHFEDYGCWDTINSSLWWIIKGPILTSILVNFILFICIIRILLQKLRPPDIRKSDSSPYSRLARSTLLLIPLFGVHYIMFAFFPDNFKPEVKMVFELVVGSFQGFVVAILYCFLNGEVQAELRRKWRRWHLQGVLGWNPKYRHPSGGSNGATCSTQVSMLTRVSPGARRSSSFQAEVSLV

[7] = molecular target: T6, calcitonin receptor (Homo sapiens, UniProt P30988); test: Live cell cAMP accumulation (GloSensor), COS-7 cells transfected with calcitonin receptor; assay type: cell-based; parameters: host or cells: COS-7 (African monkey kidney) in A3; settings: ATP […] + calcitonin 1 nM
T6 sequence (P30988 25-474): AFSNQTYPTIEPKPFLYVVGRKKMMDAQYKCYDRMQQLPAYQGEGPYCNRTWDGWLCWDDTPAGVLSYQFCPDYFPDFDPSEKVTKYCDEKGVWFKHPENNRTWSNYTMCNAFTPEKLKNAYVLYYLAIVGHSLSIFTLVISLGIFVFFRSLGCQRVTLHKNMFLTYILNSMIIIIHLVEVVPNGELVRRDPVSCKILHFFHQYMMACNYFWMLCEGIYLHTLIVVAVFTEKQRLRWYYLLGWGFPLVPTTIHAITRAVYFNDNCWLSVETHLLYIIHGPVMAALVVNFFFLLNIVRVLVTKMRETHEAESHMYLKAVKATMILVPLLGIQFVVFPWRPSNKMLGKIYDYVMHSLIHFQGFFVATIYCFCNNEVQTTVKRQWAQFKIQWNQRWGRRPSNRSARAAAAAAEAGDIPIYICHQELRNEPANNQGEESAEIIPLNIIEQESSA

[8] = molecular target: T5, VPAC1R; test: Live cell cAMP accumulation (GloSensor), SaOS-2 cells with endogenous VPAC1R; assay type: cell-based; parameters: SaOS-2 cells endogenously express VPAC1R; endogenous in cells; host or cells: SaOS-2; settings: ATP […] + VIP 1 nM
[9] = molecular target: T6, calcitonin receptor; test: Live cell cAMP accumulation (GloSensor), UMR-106 cells transfected with calcitonin receptor; assay type: cell-based; parameters: host or cells: UMR-106 (rat osteoblast-like) in A1; COS-7 (African monkey kidney) in A3; settings: ATP […] + calcitonin 1 nM
[10] = test system: class B GPCRs; test: Signaling of class B GPCRs tested (summary over receptors); assay type: cell-based; settings: CMP in place of ATP
Procedure: Cells were treated with IBMX (200–500 μM) and were further incubated for 20 minutes at room temperature. […] The emitted luminescence was measured at room temperature with a 1-second integration time at 1.5-minute intervals for a total of 45 minutes.
Data shown are means ± SEM.
To assess the time-to-maximum-slope (ie, “lag time”) for each time-course curve, we determined the time elapsed from the addition of agonist (time 0) to the first data point of the maximum slope. This procedure is illustrated in Supplemental Fig. 1.

T1 sequence (Q16602 23-461): as the sequence (Q16602 23-461) above
T1 sequence (O60894 27-148): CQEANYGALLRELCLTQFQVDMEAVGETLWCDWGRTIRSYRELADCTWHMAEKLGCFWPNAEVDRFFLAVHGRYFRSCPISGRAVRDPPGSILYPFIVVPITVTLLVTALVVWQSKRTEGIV

Nc1ncnc2c1ncn2[C@@H]1O[C@H](COP(=O)(O)OP(=O)(O)OP(=O)(O)O)[C@@H](O)[C@H]1O [ATP, Adenosine 5'-triphosphate]
Hill coefficient / slope factor ([1]; ATP + CGRP 10 nM, 4-parameter fit, n = 3): 3.2 | effect on CGRP-induced cAMP accumulation ([1]; ATP […] + CGRP 10 nM): markedly enhanced | EC50 ([1]; EC50 of ATP for potentiation of CGRP signaling, ATP + CGRP 10 nM, 4-parameter fit, n = 3): 500 µM | effect on CGRP-induced cAMP accumulation [2]: markedly enhanced | effect on PACAP-induced cAMP accumulation [3]: markedly enhanced | effect on VIP-induced cAMP accumulation ([4]; ATP […] + VIP 0.1 nM): markedly enhanced | effect on PTH1R signaling in absence of added agonist ([5]; extracellular ATP alone): no effect on PTH1R signaling in the absence of added agonist | effect on agonist-induced cAMP elevation and β-arrestin recruitment ([5]; extracellular ATP with PTH1R agonist): strongly enhance | effect on VIP-induced cAMP accumulation [6]: markedly enhanced | effect on rate of calcitonin-induced cAMP accumulation [7]: markedly enhanced | effect on VIP-induced cAMP accumulation [8]: enhanced VIP-induced cAMP accumulation | effect on calcitonin-induced cAMP accumulation [9]: markedly enhanced

Nc1ccn([C@@H]2O[C@H](COP(=O)(O)O)[C@@H](O)[C@H]2O)c(=O)n1 [CMP, cytidine 5'-monophosphate]
enhancing effect of ATP [10]: mimicked

CC[C@H](C)[C@H](NC(=O)[C@H](CO)NC(=O)[C@H](CC(N)=O)NC(=O)[C@H](CC(C)C)NC(=O)[C@H](Cc1ccc(O)cc1)NC(=O)[C@H](CCCCN)NC(=O)[C@H](CCCCN)NC(=O)[C@@H](NC(=O)[C@H](C)NC(=O)[C@H](CCSC)NC(=O)[C@H](CCC(N)=O)NC(=O)[C@H](CCCCN)NC(=O)[C@H](CCCNC(=N)N)NC(=O)[C@H](CC(C)C)NC(=O)[C@H](CCCNC(=N)N)NC(=O)[C@@H](NC(=O)[C@H](Cc1ccc(O)cc1)NC(=O)[C@H](CC(N)=O)NC(=O)[C@H](CC(=O)O)NC(=O)[C@@H](NC(=O)[C@H](Cc1ccccc1)NC(=O)[C@@H](NC(=O)[C@H](C)NC(=O)[C@H](CC(=O)O)NC(=O)[C@H](CO)NC(=O)[C@@H](N)Cc1c[nH]cn1)C(C)C)[C@@H](C)O)[C@@H](C)O)C(C)C)C(=O)N[C@@H](CC(C)C)C(=O)N[C@@H](CC(N)=O)C(N)=O [VIP, vasoactive intestinal peptide]
Normalized Maximum ([4]; VIP + vehicle, Fig. 6H, VPAC2R, fraction of greatest slope, ± SEM, n = 3-5): 0.94 ± 0.01
